Assay results from patent publication US20160237059A1, “HETEROCYCLIC SUBSTITUTED TRIFLUOROMETHYL PYRIMIDINONES AND THEIR USE” (BAYER PHARMA AKTIENGESELLSCHAFT, priority 2013, published 2016).

Columns and labels:
Assay type in all cases: cell-based
[1] = target: T1, human CCR2 (Homo sapiens, UniProt P41597); assay: Functional Ca2+ release test (B-1); conditions: Chem-1 cell line transfected with human CCR2; 50% inhibition of the MCP-1 effect, MCP-1 at EC50 (about 5 nM); in some cases means of several determinations
T1 construct: host or cells: Chem-1 cell line
T1 sequence (P41597 1-360 isoform P41597-2): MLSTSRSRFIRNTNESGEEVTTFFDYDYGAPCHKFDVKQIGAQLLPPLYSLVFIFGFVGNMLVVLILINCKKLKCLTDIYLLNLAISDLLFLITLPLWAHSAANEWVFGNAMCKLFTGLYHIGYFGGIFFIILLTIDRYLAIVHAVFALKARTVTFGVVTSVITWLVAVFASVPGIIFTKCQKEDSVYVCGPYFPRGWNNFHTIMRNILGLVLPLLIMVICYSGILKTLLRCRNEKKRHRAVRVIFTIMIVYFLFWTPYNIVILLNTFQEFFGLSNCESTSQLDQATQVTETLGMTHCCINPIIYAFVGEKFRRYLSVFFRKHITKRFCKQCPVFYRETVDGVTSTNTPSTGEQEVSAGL
Method in brief: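 Chem-1 cells expressing human CCR2, loaded with Fluo-4 for 60 min at 37° C, were preincubated 10 min with compound (10-point, 1:3.16 dilutions), then stimulated with MCP-1 at its predetermined EC50 (about 5 nM). Ca2+ release was monitored for 120 s. IC50 came from a 4-parameter Hill fit.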

[2] = target: T2, murine CCR2 (Mus musculus, UniProt P51683); assay: Functional β-arrestin recruiting test with human MCP-1 (B-2a); conditions: U2OS β-arrestin cell line transfected with murine CCR2; agonist human MCP-1 at EC50 (about 3 nM); in some cases means of several determinations
T2 construct: host or cells: U2OS β-arrestin cell line
Method in brief: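 Antagonist mode in U2OS cells expressing murine CCR2, read by PathHunter β-galactosidase complementation luminescence. Cells pre-incubated 10 min with 10-point compound dilutions (1:3.16 steps), then stimulated with human MCP-1 at its EC50 (usually about 3 nM) for 90 min at 37° C.; IC50 from 4-parameter logistic fit.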

[3] = target: T2, murine CCR2; assay: Functional β-arrestin recruiting test with murine MCP-1 (B-2b); conditions: U2OS β-arrestin cell line transfected with murine CCR2; agonist murine MCP-1; in some cases means of several determinations
Method in brief: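 In a PathHunter β-galactosidase complementation assay, U2OS cells expressing murine CCR2 were preincubated 10 min with compound (10-point, 1:3.16 dilutions), then challenged with murine MCP-1 at its predetermined EC50 for 90 min at 37 °C. Luminescence was read after 60 min, and IC50 was fitted with a 4-parameter Hill function.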

T2 sequence (P51683 whole entry): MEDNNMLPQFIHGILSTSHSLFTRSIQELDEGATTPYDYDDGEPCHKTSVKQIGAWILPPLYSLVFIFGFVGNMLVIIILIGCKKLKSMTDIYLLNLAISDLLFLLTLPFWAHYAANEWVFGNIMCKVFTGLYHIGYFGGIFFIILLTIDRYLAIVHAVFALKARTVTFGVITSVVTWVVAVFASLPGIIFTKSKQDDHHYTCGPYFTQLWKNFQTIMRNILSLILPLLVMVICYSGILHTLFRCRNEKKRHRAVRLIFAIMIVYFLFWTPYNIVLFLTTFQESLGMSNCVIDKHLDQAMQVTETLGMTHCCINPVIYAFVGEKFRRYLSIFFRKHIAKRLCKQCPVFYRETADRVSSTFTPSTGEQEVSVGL

Row | IC50 [1] [nM] | IC50 [2] [nM] | IC50 [3] [nM] | Molecule
1 | 0.8 | 12 | 44 | COc1cccnc1-c1nc(C(F)(F)F)c(Oc2ccc(Cl)c(C(F)(F)F)c2)c(=O)[nH]1 [Example 40, 5-[4-chloro-3-(trifluoromethyl)phenoxy]-2-(3-methoxypyridin-2-yl)-6-(trifluoromethyl)pyrimidin-4(3H)-one]
2 | 2.8 | 51 | 458 | Cc1cc(-c2nc(C(F)(F)F)c(Oc3ccc(Cl)c(Cl)c3)c(=O)[nH]2)nn1C [Example 54, 5-(3,4-dichlorophenoxy)-2-(1,5-dimethyl-1H-pyrazol-3-yl)-6-(trifluoromethyl)pyrimidin-4(3H)-one]
3 | 0.4 | 8.3 | 16 | Nc1ccc(-c2nc(C(F)(F)F)c(Oc3ccc(Cl)c(C(F)(F)F)c3)c(=O)[nH]2)nc1 [Example 113, 2-(5-Aminopyridin-2-yl)-5-[4-chloro-3-(trifluoromethyl)phenoxy]-6-(trifluoromethyl)pyrimidin-4(3H)-one]
4 | 1.3 | 29 | 102 | O=c1[nH]c(-c2n[nH]cc2Cl)nc(C(F)(F)F)c1Cc1ccc(Cl)c(Cl)c1 [Example 75, 2-(4-chloro-1H-pyrazol-3-yl)-5-(3,4-dichlorobenzyl)-6-(trifluoromethyl)pyrimidin-4(3H)-one]
5 | 11 | 25 | 260 | O=c1[nH]c(-c2ncccc2Cl)nc(C(F)(F)F)c1Oc1ccc(F)c(Cl)c1 [Example 14, 5-(3-chloro-4-fluorophenoxy)-2-(3-chloropyridin-2-yl)-6-(trifluoromethyl)pyrimidin-4(3H)-one]
6 | 4.2 | 53 | 195 | O=c1[nH]c(-c2ncon2)nc(C(F)(F)F)c1Oc1ccc(Cl)c(Cl)c1 [compound 79, 5-(3,4-Dichlorophenoxy)-2-(1,2,4-oxadiazol-3-yl)-6-(trifluoromethyl)pyrimidin-4(3H)-one]
7 | 0.3 | 5.1 | 8.9 | O=c1[nH]c(-c2ncccc2Cl)nc(C(F)(F)F)c1Oc1ccc(Cl)c(C(F)(F)F)c1 [Example 38, 2-(3-chloropyridin-2-yl)-5-[4-chloro-3-(trifluoromethyl)phenoxy]-6-(trifluoromethyl)pyrimidin-4(3H)-one]
8 | 1.1 | 2.9 | 59 | O=c1[nH]c(-c2n[nH]cc2Cl)nc(C(F)(F)F)c1Oc1ccc(Cl)c(Cl)c1 [Example 74, 2-(4-chloro-1H-pyrazol-3-yl)-5-(3,4-dichlorophenoxy)-6-(trifluoromethyl)pyrimidin-4(3H)-one]
9 | 2.2 | 120 | 435 | Cc1ccc(-c2nc(C(F)(F)F)c(Oc3ccc(Cl)c(Cl)c3)c(=O)[nH]2)nc1 [Example 7, 5-(3,4-dichlorophenoxy)-2-(5-methylpyridin-2-yl)-6-(trifluoromethyl)pyrimidin-4(3H)-one]
10 | 2 | 30 | 144 | O=c1[nH]c(-c2ncccc2F)nc(C(F)(F)F)c1Oc1ccc(Cl)c(Cl)c1 [Example 15, 5-(3,4-dichlorophenoxy)-2-(3-fluoropyridin-2-yl)-6-(trifluoromethyl)pyrimidin-4(3H)-one]
11 | 0.8 | 2.7 | 27 | Nc1cnn(-c2nc(C(F)(F)F)c(Oc3ccc(Cl)c(C(F)(F)F)c3)c(=O)[nH]2)c1 [Example 108, 2-(4-amino-1H-pyrazol-1-yl)-5-[4-chloro-3-(trifluoromethyl)phenoxy]-6-(trifluoromethyl)pyrimidin-4(3H)-one]
12 | 0.8 | 56 | 154 | O=c1[nH]c(-c2cn[nH]c2)nc(C(F)(F)F)c1Oc1ccc(Cl)c(C(F)(F)F)c1 [Example 70, 5-[4-chloro-3-(trifluoromethyl)phenoxy]-2-(1H-pyrazol-4-yl)-6-(trifluoromethyl)pyrimidin-4(3H)-one]
13 | 1.5 | 26 | 111 | O=c1[nH]c(-c2n[nH]cc2Cl)nc(C(F)(F)F)c1Cc1ccc(Cl)c(C(F)(F)F)c1 [Example 76, 2-(4-chloro-1H-pyrazol-3-yl)-5-[4-chloro-3-(trifluoromethyl)benzyl]-6-(trifluoromethyl)pyrimidin-4(3H)-one]
14 | 0.5 | 20 | 112 | O=c1[nH]c(-n2cccn2)nc(C(F)(F)F)c1Oc1ccc(Cl)c(Cl)c1 [Example 51, 5-(3,4-dichlorophenoxy)-2-(1H-pyrazol-1-yl)-6-(trifluoromethyl)pyrimidin-4(3H)-one]
15 | 2.9 | 87 | 380 | O=c1[nH]c(-c2ncc(F)cc2F)nc(C(F)(F)F)c1Oc1ccc(Cl)c(Cl)c1 [Example 4, 5-(3,4-dichlorophenoxy)-2-(3,5-difluoropyridin-2-yl)-6-(trifluoromethyl)pyrimidin-4(3H)-one]
16 | 1.8 | 67 | 440 | O=c1[nH]c(-n2cccn2)nc(C(F)(F)F)c1Cc1ccc(Cl)c(Cl)c1 [Example 53, 5-(3,4-dichlorobenzyl)-2-(1H-pyrazol-1-yl)-6-(trifluoromethyl)pyrimidin-4(3H)-one]
17 | 4.7 | 86 | 553 | Nc1ccnc(-c2nc(C(F)(F)F)c(Oc3ccc(Cl)c(C(F)(F)F)c3)c(=O)[nH]2)c1 [Example 45, 2-(4-aminopyridin-2-yl)-5-[4-chloro-3-(trifluoromethyl)phenoxy]-6-(trifluoromethyl)pyrimidin-4(3H)-one]
18 | 0.4 | 25 | 135 | 5-(3,4-dichlorobenzyl-2-(3-methoxypyridin-2-yl)-6-(trifluoromethyl)pyrimidin-4(3H)-one [Example 23]
19 | 1.3 | 85 | 439 | Cn1cnc(-c2nc(C(F)(F)F)c(Cc3ccc(Cl)c(Cl)c3)c(=O)[nH]2)c1 [Example 52, 5-(3,4-dichlorobenzyl)-2-(1-methyl-1H-imidazol-4-yl)-6-(trifluoromethyl)pyrimidin-4(3H)-one]
20 | 1.4 | 43 | 191 | O=c1[nH]c(-c2ncccc2F)nc(C(F)(F)F)c1Cc1ccc(Cl)c(Cl)c1 [Example 17, 5-(3,4-dichlorobenzyl)-2-(3-fluoropyridin-2-yl)-6-(trifluoromethyl)pyrimidin-4(3H)-one]
21 | 0.3 | 1.8 | 4.8 | O=c1[nH]c(-c2cc[nH]n2)nc(C(F)(F)F)c1Oc1ccc(Cl)c(C(F)(F)F)c1 [Example 65, 5-[4-chloro-3-(trifluoromethyl)phenoxy]-2-(1H-pyrazol-3-yl)-6-(trifluoromethyl)pyrimidin-4(3H)-one]
22 | 1.5 | 35 | 160 | O=c1[nH]c(-c2ncccc2Cl)nc(C(F)(F)F)c1Cc1ccc(Cl)c(C(F)(F)F)c1 [Example 35, 2-(3-chloropyridin-2-yl)-5-[4-chloro-3-(trifluoromethyl)benzyl]-6-(trifluoromethyl)pyrimidin-4(3H)-one]
23 | 0.6 | 12 | 106 | Cn1cnc(-c2nc(C(F)(F)F)c(Oc3ccc(Cl)c(C(F)(F)F)c3)c(=O)[nH]2)c1 [Example 59, 5-[4-chloro-3-(trifluoromethyl)phenoxy]-2-(1-methyl-1H-imidazol-4-yl)-6-(trifluoromethyl)pyrimidin-4(3H)-one]
24 | 1.2 | 31 | 205 | O=c1[nH]c(-c2ccccn2)nc(C(F)(F)F)c1Oc1ccc(Cl)c(Cl)c1 [Example 3, 5-(3,4-dichlorophenoxy)-2-(pyridin-2-yl)-6-(trifluoromethyl)pyrimidin-4(3H)-one]
25 | 3.7 | 16 | 50 | O=c1[nH]c(-c2ncon2)nc(C(F)(F)F)c1Oc1ccc(Cl)c(C(F)(F)F)c1 [Example 78, 5-[4-Chloro-3-(trifluoromethyl)phenoxy]-2-(1,2,4-oxadiazol-3-yl)-6-(trifluoromethyl)pyrimidin-4(3H)-one]
26 | 0.4 | 8.2 | 54 | COc1cccnc1-c1nc(C(F)(F)F)c(Oc2ccc(Cl)c(Cl)c2)c(=O)[nH]1 [Example 24, 5-(3,4-dichlorophenoxy)-2-(3-methoxypyridin-2-yl)-6-(trifluoromethyl)pyrimidin-4(3H)-one]
27 | 4.5 | 88 | 1040 | O=c1[nH]c(-c2ccccn2)nc(C(F)(F)F)c1Oc1ccc(F)c(Cl)c1 [Example 2, 5-(3-chloro-4-fluorophenoxy)-2-(pyridin-2-yl)-6-(trifluoromethyl)pyrimidin-4(3H)-one]
